ChEMBL document CHEMBL1201862, “PubChem BioAssay data set” (2004)
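48-hour exposure; five concentrations; linearly interpolated endpoints. GI50: concentration for 50% inhibition of growth.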 Calls of active or inactive are those of the source. Rule as the data show it: active = GI50 up to about 1.1 µM and inactive = higher.

Columns and labels:
Assay in all cases: NCI-60 cell line screen, 48 h
SF-268 = tested on: SF-268
RXF 393 = tested on: RXF 393
SK-MEL-5 = tested on: SK-MEL-5
MDA-MB-435 = tested on: MDA-MB-435
NCI/ADR-RES = tested on: NCI/ADR-RES
OVCAR-8 = tested on: OVCAR-8
HCT-15 = tested on: HCT-15
NCI-H460 = tested on: NCI-H460
A498 = tested on: A498
M14 = tested on: M14
RPMI-8226 = tested on: RPMI-8226
KM12 = tested on: KM12
SNB-75 = tested on: SNB-75
SR = tested on: SR
NCI-H226 = tested on: NCI-H226
HOP-62 = tested on: HOP-62
T47D = tested on: T47D
HL-60 = tested on: HL-60
UO-31 = tested on: UO-31

## O=[N+]([O-])c1cc(F)ccc1Sc1ccccc1
SF-268
  GI50: > 10 µM (inactive)
RXF 393
  GI50: > 10 µM (inactive)
SK-MEL-5
  GI50: > 10 µM (inactive)
MDA-MB-435
  GI50: > 10 µM (inactive)
NCI/ADR-RES
  GI50: > 10 µM (inactive)
OVCAR-8
  GI50: > 10 µM (inactive)
HCT-15
  GI50: > 10 µM
NCI-H460
  GI50: > 10 µM (inactive)
A498
  GI50: > 10 µM (inactive)
M14
  GI50: > 10 µM (inactive)
RPMI-8226
  GI50: > 10 µM (inactive)
KM12
  GI50: > 10 µM (inactive)
SNB-75
  GI50: > 10 µM (inactive)
SR
  GI50: > 10 µM (inactive)
NCI-H226
  GI50: > 10 µM (inactive)
HOP-62
  GI50: > 10 µM (inactive)
T47D
  GI50: > 10 µM (inactive)
HL-60
  GI50: > 10 µM (inactive)

## Cn1c2c(c3ccccc31)CCN1OCC=C[C@@H](C(=O)O)[C@@H]21
SF-268
  GI50: > 100 µM (inactive)
RXF 393
  GI50: > 100 µM (inactive)
SK-MEL-5
  GI50: > 100 µM (inactive)
MDA-MB-435
  GI50: > 100 µM (inactive)
NCI/ADR-RES
  GI50: > 100 µM (inactive)
OVCAR-8
  GI50: > 100 µM (inactive)
HCT-15
  GI50: > 100 µM
NCI-H460
  GI50: > 100 µM (inactive)
A498
  GI50: > 100 µM (inactive)
M14
  GI50: > 100 µM (inactive)
KM12
  GI50: > 100 µM (inactive)
UO-31
  GI50: 51.3 µM (inactive)
SNB-75
  GI50: 82 µM (inactive)
SR
  GI50: > 100 µM (inactive)
NCI-H226
  GI50: > 100 µM (inactive)
HOP-62
  GI50: > 100 µM (inactive)
T47D
  GI50: > 100 µM (inactive)
HL-60
  GI50: > 100 µM (inactive)

## COC(=O)/C=C(\S/C=C(/c1ccccc1)N1CCn2c(C(=O)c3ccccc3)c(C(=O)OC)c(C(=O)OC)c21)C(=O)OC
RXF 393
  GI50: 2.67 µM (inactive)
SK-MEL-5
  GI50: > 10 µM (inactive)
MDA-MB-435
  GI50: 3.97 µM (inactive)
NCI/ADR-RES
  GI50: 3.52 µM (inactive)
OVCAR-8
  GI50: 1.73 µM (inactive)
HCT-15
  GI50: 2.6 µM
NCI-H460
  GI50: > 10 µM (inactive)
A498
  GI50: > 10 µM (inactive)
M14
  GI50: 2.4 µM (inactive)
RPMI-8226
  GI50: 2.43 µM (inactive)
KM12
  GI50: > 10 µM (inactive)
SNB-75
  GI50: > 10 µM (inactive)
SR
  GI50: 2.61 µM (inactive)
NCI-H226
  GI50: > 10 µM (inactive)
HOP-62
  GI50: 2.69 µM (inactive)
T47D
  GI50: 2.92 µM (inactive)
HL-60
  GI50: 0.531 µM (active)

## COc1ccc2c(c1)NC1(CCN(CCCC(=O)c3ccc(F)cc3)CC1)N=N2
SF-268
  GI50: 41.8 µM (inactive)
RXF 393
  GI50: 16.6 µM (inactive)
SK-MEL-5
  GI50: 12.6 µM (inactive)
MDA-MB-435
  GI50: 15.8 µM (inactive)
NCI/ADR-RES
  GI50: 24.4 µM (inactive)
HCT-15
  GI50: 20.8 µM
NCI-H460
  GI50: 26.1 µM (inactive)
A498
  GI50: 28.4 µM (inactive)
M14
  GI50: 13.7 µM (inactive)
RPMI-8226
  GI50: 16.6 µM (inactive)
KM12
  GI50: 20.1 µM (inactive)
UO-31
  GI50: 18 µM (inactive)
SNB-75
  GI50: 15.1 µM (inactive)
SR
  GI50: 15.7 µM (inactive)
NCI-H226
  GI50: 22 µM (inactive)
HOP-62
  GI50: 24.7 µM (inactive)
T47D
  GI50: 22.2 µM (inactive)
HL-60
  GI50: 15.2 µM (inactive)

## N=c1nc(N)nc(N)n1-c1ccc(S(N)(=O)=O)cc1
SF-268
  GI50: > 100 µM (inactive)
RXF 393
  GI50: > 100 µM (inactive)
SK-MEL-5
  GI50: > 100 µM (inactive)
MDA-MB-435
  GI50: > 100 µM (inactive)
NCI/ADR-RES
  GI50: > 100 µM (inactive)
OVCAR-8
  GI50: > 100 µM (inactive)
HCT-15
  GI50: > 100 µM
NCI-H460
  GI50: > 100 µM (inactive)
A498
  GI50: > 100 µM (inactive)
M14
  GI50: > 100 µM (inactive)
KM12
  GI50: > 100 µM (inactive)
UO-31
  GI50: > 100 µM (inactive)
SR
  GI50: > 100 µM (inactive)
NCI-H226
  GI50: > 100 µM (inactive)
HOP-62
  GI50: > 100 µM (inactive)
T47D
  GI50: > 100 µM (inactive)
HL-60
  GI50: > 100 µM (inactive)

## CCCCc1ccc(Nc2nc3c(ncn3C3OC(COC(C)=O)C(OC(C)=O)C3OC(C)=O)c(=O)[nH]2)cc1 (stereo unspecified)
SF-268
  GI50: 19.4 µM (inactive)
RXF 393
  GI50: 19.1 µM (inactive)
SK-MEL-5
  GI50: 17.4 µM (inactive)
MDA-MB-435
  GI50: 19.9 µM (inactive)
NCI/ADR-RES
  GI50: > 100 µM (inactive)
OVCAR-8
  GI50: 18.4 µM (inactive)
HCT-15
  GI50: > 100 µM
NCI-H460
  GI50: 18.3 µM (inactive)
A498
  GI50: > 100 µM (inactive)
M14
  GI50: 20.6 µM (inactive)
RPMI-8226
  GI50: 20.4 µM (inactive)
KM12
  GI50: 18.4 µM (inactive)
UO-31
  GI50: > 100 µM (inactive)
SR
  GI50: 13.5 µM (inactive)
NCI-H226
  GI50: 21.1 µM (inactive)
HOP-62
  GI50: 17.8 µM (inactive)
T47D
  GI50: 13.7 µM (inactive)
HL-60
  GI50: 26.2 µM (inactive)

## COc1cc(Oc2nc3cc(F)c(F)cc3nc2-c2ccccc2)cc(OC)c1OC
SF-268
  GI50: 59 µM (inactive)
RXF 393
  GI50: > 100 µM (inactive)
SK-MEL-5
  GI50: 28.1 µM (inactive)
MDA-MB-435
  GI50: 61.9 µM (inactive)
NCI/ADR-RES
  GI50: > 100 µM (inactive)
OVCAR-8
  GI50: > 100 µM (inactive)
HCT-15
  GI50: 51.9 µM
NCI-H460
  GI50: 63.8 µM (inactive)
A498
  GI50: > 100 µM (inactive)
M14
  GI50: 45.3 µM (inactive)
KM12
  GI50: 35 µM (inactive)
UO-31
  GI50: 73.6 µM (inactive)
SNB-75
  GI50: 20.4 µM (inactive)
SR
  GI50: 78.9 µM (inactive)
NCI-H226
  GI50: 45.5 µM (inactive)
HOP-62
  GI50: 82 µM (inactive)
T47D
  GI50: > 100 µM (inactive)
HL-60
  GI50: > 100 µM (inactive)

## NC1CCCCC1.O=C(CP(=O)(O)O)NC(CC(=O)OCc1ccccc1)C(=O)OCc1ccccc1 (stereo unspecified)
SF-268
  GI50: > 100 µM (inactive)
RXF 393
  GI50: > 100 µM (inactive)
SK-MEL-5
  GI50: > 100 µM (inactive)
MDA-MB-435
  GI50: > 100 µM (inactive)
NCI/ADR-RES
  GI50: > 100 µM (inactive)
OVCAR-8
  GI50: > 100 µM (inactive)
HCT-15
  GI50: > 100 µM
NCI-H460
  GI50: > 100 µM (inactive)
A498
  GI50: > 100 µM (inactive)
M14
  GI50: > 100 µM (inactive)
RPMI-8226
  GI50: > 100 µM (inactive)
UO-31
  GI50: > 100 µM (inactive)
SNB-75
  GI50: 4.1 µM (inactive)
SR
  GI50: > 100 µM (inactive)
NCI-H226
  GI50: > 100 µM (inactive)
HOP-62
  GI50: > 100 µM (inactive)
T47D
  GI50: > 100 µM (inactive)
HL-60
  GI50: > 100 µM (inactive)

## CC1C(=O)OC2CC[N+]3([O-])CC=C(COC(=O)C(C)(O)C1(C)O)C23 (stereo unspecified)
SF-268
  GI50: > 100 µM (inactive)
RXF 393
  GI50: > 100 µM (inactive)
SK-MEL-5
  GI50: > 100 µM (inactive)
MDA-MB-435
  GI50: > 100 µM (inactive)
NCI/ADR-RES
  GI50: > 100 µM (inactive)
OVCAR-8
  GI50: > 100 µM (inactive)
HCT-15
  GI50: > 100 µM
NCI-H460
  GI50: > 100 µM (inactive)
A498
  GI50: > 100 µM (inactive)
M14
  GI50: > 100 µM (inactive)
RPMI-8226
  GI50: > 100 µM (inactive)
KM12
  GI50: > 100 µM (inactive)
SNB-75
  GI50: > 100 µM (inactive)
SR
  GI50: 95.7 µM (inactive)
NCI-H226
  GI50: > 100 µM (inactive)
HOP-62
  GI50: > 100 µM (inactive)
T47D
  GI50: > 100 µM (inactive)
HL-60
  GI50: > 100 µM (inactive)

## Oc1ccc2ccccc2c1CCc1c(O)ccc2ccccc12
SF-268
  GI50: 11 µM (inactive)
RXF 393
  GI50: 11.7 µM (inactive)
SK-MEL-5
  GI50: 12.6 µM (inactive)
MDA-MB-435
  GI50: 12.8 µM (inactive)
NCI/ADR-RES
  GI50: 13.6 µM (inactive)
OVCAR-8
  GI50: 14.5 µM (inactive)
HCT-15
  GI50: 14.4 µM
NCI-H460
  GI50: 10.4 µM (inactive)
A498
  GI50: 18.5 µM (inactive)
M14
  GI50: 15.5 µM (inactive)
RPMI-8226
  GI50: 7.01 µM (inactive)
KM12
  GI50: 11.8 µM (inactive)
SNB-75
  GI50: 3.66 µM (inactive)
SR
  GI50: 12 µM (inactive)
NCI-H226
  GI50: 13.7 µM (inactive)
HOP-62
  GI50: 13.5 µM (inactive)
T47D
  GI50: 2.44 µM (inactive)
HL-60
  GI50: 22.8 µM (inactive)

## COc1cc(Oc2c(C)c(Cl)c(OC)c(Cl)c2OC)c2c(c1Cl)COC2=O
SF-268
  GI50: 21.8 µM (inactive)
RXF 393
  GI50: 35.6 µM (inactive)
SK-MEL-5
  GI50: 12.2 µM (inactive)
MDA-MB-435
  GI50: 31.3 µM (inactive)
NCI/ADR-RES
  GI50: 17.1 µM (inactive)
OVCAR-8
  GI50: 17.6 µM (inactive)
HCT-15
  GI50: 13.9 µM
NCI-H460
  GI50: 10.7 µM (inactive)
A498
  GI50: 49.7 µM (inactive)
M14
  GI50: 27.7 µM (inactive)
RPMI-8226
  GI50: 3.52 µM (inactive)
KM12
  GI50: 20.9 µM (inactive)
UO-31
  GI50: 10.8 µM (inactive)
SNB-75
  GI50: 41.9 µM (inactive)
SR
  GI50: 3.85 µM (inactive)
NCI-H226
  GI50: 27.9 µM (inactive)
T47D
  GI50: 9.73 µM (inactive)
HL-60
  GI50: 7.78 µM (inactive)
